Source: patent US9206191B2, “Indazoles for the treatment and prophylaxis of respiratory syncytial virus infection” (Hoffmann-La Roche Inc., priority 2012, dated 2015)

Tested on: RSV Long strain
Assay: Viral Cytopathic Effect (CPE) Assay
Format: cell-based
Conditions: human respiratory syncytial virus, 144 h, cell viability after 6 days, Cell Counting kit-8

| SMILES | EC50 [nM] |
| --- | --- |
| CS(=O)(=O)c1nn(Cc2nc3cc(Cl)ccc3n2[C@@H]2CCN(CC(F)(F)F)C2)c2cnccc12 [Example 2-20, 1-({5-Chloro-1-[(3R)-1-(2,2,2-trifluoroethyl)pyrrolidin-3-yl]-1H-benzimidazol-2-yl}methyl)-3-(methylsulfonyl)-1H-pyrazolo[3,4-c]pyridine] | 188 |
| CS(=O)(=O)c1nn(Cc2nc3cc(Cl)ccc3n2CCC2COC2)c2cnccc12 [Example 2-23, 1-({5-Chloro-1-[2-(oxetan-3-yl)ethyl]-1H-benzimidazol-2-yl}methyl)-3-(methylsulfonyl)-1H-pyrazolo[3,4-c]pyridine] | 6 |
| CS(=O)(=O)c1nn(Cc2nc3cc(Cl)ccc3n2CCCO)c2cnccc12 [Example 2-27, 3-(5-Chloro-2-{[3-(methylsulfonyl)-1H-pyrazolo[3,4-c]pyridin-1-yl]methyl}-1H-benzimidazol-1-yl)propan-1-ol] | 7.53 |
| CC(C)(O)CCn1c(Cn2nc(S(C)(=O)=O)c3ccncc32)nc2cc(Cl)ccc21 [Example 2-29, 4-(5-Chloro-2-{[3-(methylsulfonyl)-1H-pyrazolo[3,4-c]pyridin-1-yl]methyl}-1H-benzimidazol-1-yl)-2-methylbutan-2-ol] | 8.04 |
| CS(=O)(=O)c1nn(Cc2nc3cc(Cl)ccc3n2CCCCO)c2cnccc12 [Example 2-30, 4-(5-Chloro-2-{[3-(methylsulfonyl)-1H-pyrazolo[3,4-c]pyridin-1-yl]methyl}-1H-benzimidazol-1-yl)butan-1-ol] | 4.81 |
| CS(=O)(=O)c1nn(Cc2nc3cc(Cl)ccc3n2CC2CCOC2)c2cnccc12 (centres unmarked) [Example 2-31, 1-{[5-Chloro-1-(tetrahydrofuran-3-ylmethyl)-1H-benzimidazol-2-yl]methyl}-3-(methylsulfonyl)-1H-pyrazolo[3,4-c]pyridine] | 4.34 |
| CS(=O)(=O)c1nn(Cc2nc3cc(Cl)ccc3n2CCC2(O)CC2)c2cnccc12 [Example 2-34, 1-[2-(5-Chloro-2-{[3-(methylsulfonyl)-1H-pyrazolo[3,4-c]pyridin-1-yl]methyl}-1H-benzimidazol-1-yl)ethyl]cyclopropanol] | 8.7 |
| CS(=O)(=O)c1nn(Cc2nc3cc(Cl)ccc3n2CCOCCO)c2cnccc12 [Example 2-35, 2-[2-(5-chloro-2-{[3-(methylsulfonyl)-1H-pyrazolo[3,4-c]pyridin-1-yl]methyl}-1H-benzimidazol-1-yl)ethoxy]ethanol] | 15 |
| CC(C)(O)CCCn1c(Cn2nc(S(C)(=O)=O)c3ccncc32)nc2cc(Cl)ccc21 [Example 2-38, 5-(5-chloro-2-{[3-(methylsulfonyl)-1H-pyrazolo[3,4-c]pyridin-1-yl]methyl}-1H-benzimidazol-1-yl)-2-methylpentan-2-ol] | 8 |
| CS(=O)(=O)c1nn(Cc2nc3cc(Cl)ccc3n2CCC(O)C(F)(F)F)c2cnccc12 (centres unmarked) [Example 2-42, 4-(5-chloro-2-{[3-(methylsulfonyl)-1H-pyrazolo[3,4-c]pyridin-1-yl]methyl}-1H-benzimidazol-1-yl)-1,1,1-trifluorobutan-2-ol] | 1.6 |
| CS(=O)(=O)c1nn(Cc2nc3cc(Cl)ccc3n2CCC(O)C(F)F)c2cnccc12 (centres unmarked) [Example 2-44, 4-(5-chloro-2-{[3-(methylsulfonyl)-1H-pyrazolo[3,4-c]pyridin-1-yl]methyl}-1H-benzimidazol-1-yl)-1,1-difluorobutan-2-ol] | 3.3 |
| CS(=O)(=O)c1nn(Cc2nc3cc(Cl)ccc3n2-c2ccc(F)nc2)c2ccccc12 [Example 3-1, 1-{[5-Chloro-1-(6-fluoropyridin-3-yl)-1H-benzimidazol-2-yl]methyl}-3-(methylsulfonyl)-1H-indazole] | 9.86 |

More lines, now with the values ahead:

| EC50 [nM] | SMILES |
| --- | --- |
| 8.66 | CS(=O)(=O)c1nn(Cc2nc3cc(Cl)ccc3n2C2CC3(COC3)C2)c2cnccc12 [Example 2-24, 1-{[5-Chloro-1-(2-oxaspiro[3.3]hept-6-yl)-1H-benzimidazol-2-yl]methyl}-3-(methylsulfonyl)-1H-pyrazolo[3,4-c]pyridine] |
| 6.79 | CC1(CCn2c(Cn3nc(S(C)(=O)=O)c4ccncc43)nc3cc(Cl)ccc32)COC1 [Example 2-25, 1-({5-Chloro-1-[2-(3-methyloxetan-3-yl)ethyl]-1H-benzimidazol-2-yl}methyl)-3-(methylsulfonyl)-1H-pyrazolo[3,4-c]pyridine] |
| 7 | CS(=O)(=O)c1nn(Cc2nc3cc(Cl)ccc3n2[C@H]2C[C@](C)(O)C2)c2cnccc12 [Example 2-26, trans-3-(5-Chloro-2-{[3-(methylsulfonyl)-1H-pyrazolo[3,4-c]pyridin-1-yl]methyl}-1H-benzimidazol-1-yl)-1-methylcyclobutanol] |
| 7.57 | CS(=O)(=O)c1nn(Cc2nc3cc(Cl)ccc3n2C2CCOC2)c2cnccc12 (centres unmarked) [Example 2-28, 1-{[5-Chloro-1-(tetrahydrofuran-3-yl)-1H-benzimidazol-2-yl]methyl}-3-(methylsulfonyl)-1H-pyrazolo[3,4-c]pyridine] |
| 3.32 | CS(=O)(=O)c1nn(Cc2nc3cc(Cl)ccc3n2[C@H]2C[C@H](O)C2)c2cnccc12 [Example 2-32, trans-3-(5-Chloro-2-{[3-(methylsulfonyl)-1H-pyrazolo[3,4-c]pyridin-1-yl]methyl}-1H-benzimidazol-1-yl)cyclobutanol] |
| 9.85 | CS(=O)(=O)c1nn(Cc2nc3cc(Cl)ccc3n2[C@H]2C[C@@](C)(O)C2)c2cnccc12 [Example 2-33, cis-3-(5-Chloro-2-{[3-(methylsulfonyl)-1H-pyrazolo[3,4-c]pyridin-1-yl]methyl}-1H-benzimidazol-1-yl)-1-methylcyclobutanol] |
| 6 | CS(=O)(=O)c1nn(Cc2nc3cc(Cl)ccc3n2[C@H]2CC[C@@](C)(O)CC2)c2cnccc12 [Example 2-37, cis-4-(5-chloro-2-{[3-(methylsulfonyl)-1H-pyrazolo[3,4-c]pyridin-1-yl]methyl}-1H-benzimidazol-1-yl)-1-methylcyclohexanol] |
| 2 | CC(C)(O)[C@H]1C[C@H](n2c(Cn3nc(S(C)(=O)=O)c4ccncc43)nc3cc(Cl)ccc32)C1 [Example 2-39, 2-[trans-3-(5-chloro-2-{[3-(methylsulfonyl)-1H-pyrazolo[3,4-c]pyridin-1-yl]methyl}-1H-benzimidazol-1-yl)cyclobutyl]propan-2-ol] |
| 7 | CS(=O)(=O)c1nn(Cc2nc3cc(Cl)ccc3n2[C@H]2C[C@H](C(=O)O)C2)c2cnccc12 [Example 2-41, trans-3-(5-chloro-2-{[3-(methylsulfonyl)-1H-pyrazolo[3,4-c]pyridin-1-yl]methyl}-1H-benzimidazol-1-yl)cyclobutanecarboxylic acid] |
| 6.1 | CS(=O)(=O)c1nn(Cc2nc3cc(Cl)ccc3n2C2C[C@@H](O)[C@H](O)C2)c2cnccc12 [Example 2-45, trans-4-(5-chloro-2-{[3-(methylsulfonyl)-1H-pyrazolo[3,4-c]pyridin-1-yl]methyl}-1H-benzimidazol-1-yl)cyclopentane-1,2-diol] |
| 7.2 | CS(=O)(=O)c1nn(Cc2nc3cc(Cl)ccc3n2[C@H]2C[C@@](O)(CO)C2)c2cnccc12 [Example 2-46, trans-3-(5-chloro-2-{[3-(methylsulfonyl)-1H-pyrazolo[3,4-c]pyridin-1-yl]methyl}-1H-benzimidazol-1-yl)-1-(hydroxymethyl)cyclobutanol] |
